From patent US10620222B2, “Electrified compositions for determining the risk of developing adolescent idiopathic scoliosis through the use of GI protein receptor” (CHU Sainte-Justine, priority 2008, dated 2020)
Several values for one entry are separate records, joined by “and”; a condition that tells them apart may be missing. Identical values can stand only once.

Experiments:
[1] = system: receptors coupled to Gi proteins expressed on osteoblasts; experiment: Cellular Dielectric Spectroscopy (CDS, CELLKEY) response to Gi-coupled receptor ligands in osteoblasts from control and AIS subjects; assay type: cell-based, human; design: % of control / % of control signal, Group 1, min diff. / % of control signal, Group 2, min diff. / % of control signal, Group 3, min diff.: concentration or dose not given beside the values; dZiec value / Absolute dZiec, control value of max diff. (maximal control value): unit not given here; conditions: for dZiec value: n1, n2 of Exper. 1-3
[2] = system: melatonin signaling in osteoblasts; experiment: cAMP assay in forskolin pre-treated osteoblasts; assay type: cell-based, human; conditions: osteoblasts from IS patients; increasing concentration of melatonin; FIG. 2
Description: Osteoblasts from patients with IS and control subjects were seeded in quadruplicate on 24-well plates (1×10^5 cells per well) and tested as previously described (Moreau A, Wang D S, Forget S et al. Melatonin Signaling Dysfunction in Adolescent Idiopathic Scoliosis. Spine 2004; 29:1772-81). All assays were performed in duplicate.
Cells were then challenged with increasing concentration of melatonin and the functional status of melatonin signaling was estimated by the ability of melatonin to reduce cAMP levels. Data were normalized with cAMP production induced by forskolin in the absence of melatonin. […] Furthermore, the extent of this production was different between the three IS patients.

[3] = system: Gi protein-mediated pathway in MG63 osteoblast cell line; assay type: cell-based; conditions: 100 ng/mL PTX 16 h, stimulation with 10 μM ligand, 37° C., 5 min
Description: The ability of CDS to detect the relative part of the Gi protein-mediated pathway in melatonin signaling was determined by blocking this pathway with pertussis toxin (PTX). This toxin ADP-ribosylates the a subunit of the heterotrimeric Gi protein and thereby prevents its activity. The MG63 osteoblast cell line was serum-starved for 16 h in the absence or presence of 100 ng/mL of PTX to inhibit the αi subunit of Gi protein. […] Cellular responses were measured with CELLKEY™ label-free cellular analysis system as described in the Material and Methods section.

[4] = osteoblasts of control subjects, 300 μM ligand, from FIGS. 11A-11F

Question: What does the source list for COc1ccc2[nH]cc(CCNC(C)=O)c2c1 [Melatonin, melatonin]?
Answer: CDS response, dependence on concentration ([1]; osteoblasts from both control and IS patients, FIGS. 4A-4C): concentration-dependent manner; % of control ([1]; osteoblasts of AIS#1020 (Group 3) relative to CTR#60): 52.6% and 59.8% and 63.3% and 58.1% and 58% and 59.2%; dZiec value ([1]; osteoblasts of AIS#1020 (Group 3), 300 μM ligand): 29.38 and 31.88 and 40.33 and 39.33 and 34.34 and 36.12; % of control ([1]; osteoblasts of AIS#1198 (Group 3 in Table II) relative to CTR#69): 39.3% and 42.7% and 35.6% and 27.7% and 33.3% and 34.7%; dZiec value ([1]; osteoblasts of AIS#1198 (Group 3 in Table II), 300 μM ligand): 23.94 and 31.44 and 31.91 and 25.91 and 27.41 and 29.19; % of control ([1]; osteoblasts of AIS#1468 (Group 3) relative to CTR#61): 65.3% and 70% and 67.8% and 64.6% and 66.4% and 67.2%; dZiec value ([1]; osteoblasts of AIS#1468 (Group 3), 300 μM ligand): 44.92 and 46.42 and 54.79 and 49.34 and 51.12; % of control ([1]; osteoblasts of AIS#1474 (Group 1) relative to CTR#60): 29.6% and 24.4% and 23.8% and 22.4% and 29.3% and 26.4%; dZiec value ([1]; osteoblasts of AIS#1474 (Group 1), 300 μM ligand): 16.53 and 13.03 and 15.18 and 17.34 and 16.12; % of control ([1]; osteoblasts of AIS#1488 (Group 1) relative to CTR#69): 12.9% and 15.3% and 12.2% and 11.7% and 15% and 14.4%; dZiec value ([1]; osteoblasts of AIS#1488 (Group 1), 300 μM ligand): 9.79 and 11.29 and 10.91 and 12.34 and 12.12; % of control ([1]; osteoblasts of AIS#1513 (Group 3) relative to CTR#61): 56.5% and 59.4% and 62.9% and 61.1% and 59.7% and 60.6%; dZiec value ([1]; osteoblasts of AIS#1513 (Group 3), 300 μM ligand): 38.90 and 39.40 and 50.81 and 51.81 and 44.34 and 46.12; % of control ([1]; osteoblasts of AIS#1549 (Group 1) relative to CTR#61): 25.1% and 25.3% and 22.8% and 24.1% and 23.3%; dZiec value ([1]; osteoblasts of AIS#1549 (Group 1), 300 μM ligand): 17.30 and 16.80 and 18.41 and 20.41 and 17.34 and 19.12; % of control ([1]; osteoblasts of AIS#1550 (Group 2) relative to CTR#60): 50.7% and 57.7% and 46.2% and 47.9% and 49.5% and 51%; dZiec value ([1]; osteoblasts of AIS#1550 (Group 2), 300 μM ligand): 28.28 and 30.78 and 29.43 and 32.43 and 29.34 and 31.12; dZiec value ([1]; osteoblasts of control CTR#60, 300 μM ligand): 55.81/— and 53.31/— and 63.72/— and 67.72/— and 59.25/— and 61.03/—; dZiec value ([1]; osteoblasts of control CTR#61, 300 μM ligand): 68.79/— and 66.29/— and 80.84/— and 84.84/— and 74.30/— and 76.08/—; dZiec value ([1]; osteoblasts of control CTR#69, 300 μM ligand): 76.12/— and 73.62/— and 89.58/— and 93.58/— and 82.34/— and 84.12/—; Absolute dZiec, control value of max diff. (maximal control value) [1, 4]: 83; Absolute dZiec, control value of min diff. (minimal control value) [1, 4]: 60; Absolute dZiec, Group 1, max diff. (group value) ([1]; osteoblasts, AIS Group 1 value of max diff., 300 μM ligand, from FIGS. 11A-11F): 11; Absolute dZiec, Group 1, min diff. (group value) ([1]; osteoblasts, AIS Group 1 value of min diff., 300 μM ligand, from FIGS. 11A-11F): 18; % of control signal, Group 1, max diff. ([1]; osteoblasts, AIS Group 1 vs maximal control value): 13%; % of control signal, Group 1, min diff. ([1]; osteoblasts, AIS Group 1 vs minimal control value): 30%; Absolute dZiec, Group 2, max diff. (group value) ([1]; osteoblasts, AIS Group 2 value of max diff., 300 μM ligand, from FIGS. 11A-11F): 28; Absolute dZiec, Group 2, min diff. (group value) ([1]; osteoblasts, AIS Group 2 value of min diff., 300 μM ligand, from FIGS. 11A-11F): 37; % of control signal, Group 2, max diff. ([1]; osteoblasts, AIS Group 2 vs maximal control value): 34%; % of control signal, Group 2, min diff. ([1]; osteoblasts, AIS Group 2 vs minimal control value): 62%; Absolute dZiec, Group 3, max diff. (group value) ([1]; osteoblasts, AIS Group 3 value of max diff., 300 μM ligand, from FIGS. 11A-11F): 45; Absolute dZiec, Group 3, min diff. (group value) ([1]; osteoblasts, AIS Group 3 value of min diff., 300 μM ligand, from FIGS. 11A-11F): 50; % of control signal, Group 3, max diff. ([1]; osteoblasts, AIS Group 3 vs maximal control value): 54%; % of control signal, Group 3, min diff. ([1]; osteoblasts, AIS Group 3 vs minimal control value): 83%; magnitude of CDS response in IS osteoblasts vs control ([1]; osteoblasts, FIGS. 4A-4C): significantly lower; cAMP production after forskolin stimulation, IS vs healthy control osteoblasts [2]: high cAMP production; inhibition extent of the CDS response by PTX treatment [3]: about 75%
